Holding throughout (assay): NCI-60 cell line screen, 48 h
Test [1] has as its system MALME-3M melanoma.
Test [2] relates to HCC-2998 colon.
Test [3] deals with CAKI-1 renal.
For test [4], the system named is UACC-62 melanoma.
Test [5] has as its system K-562 leukemia.
The subject of test [6] is OVCAR-4 ovarian.
Test [7] has as its system SR leukemia.
Test [8] deals with SK-OV-3 ovarian.
Test [9] relates to HOP-62 NSCLC.
In test [10] the test system is MCF7 breast.
The test system of test [11] is IGROV1 ovarian.
In test [12] the test system is MOLT-4 leukemia.
For test [13], the system named is HCT-15 colon.
The test system of test [14] is A549 NSCLC.
Test [15] relates to LOX IMVI melanoma.
For test [16], the system named is COLO 205 colon.
Test [17] relates to HCT-116 colon.
The test system of test [18] is TK-10 renal.
Test [19] deals with UO-31 renal.
Test [20] concerns PC-3 prostate.

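Exposure lasted 48 hours, with cells grown in 96-well plates and compounds tested at five concentrations. At the TGI there is no net growth.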 Where only a bound is given, the exact number is not on record here.

Regarding `OC[P+](CO)(CO)C12CC3CC(CC(C3)C1)C2`, the TGI in [1], in test [2], in test [3], in [4], in [5] and in test [6] was over 100 µM in each case. Moreover, the TGI is over 82 µM in [7]; over 100 µM in test [8]; over 100 µM in test [9]; over 100 µM in [10]; over 100 µM in test [11]; over 80.9 µM in test [12]. For the same compound, the TGI in test [13] is over 100 µM; in test [14], over 100 µM; in test [15], over 29.8 µM; in test [16], over 100 µM; in test [17], over 100 µM; in test [18] it was over 100 µM. In addition, the TGI in test [19] and in test [20] was over 100 µM throughout.

Turning to `Cn1c(=O)c2c(nc3sc4c(n32)C(=O)c2c(O)ccc(O)c2C4=O)n(C)c1=O`, the TGI came out at 3.09 µM in test [1]; 17.5 µM in test [2]; 18.6 µM in [3]; 8.5 µM in [4]; 2.44 µM in [5]; 2.92 µM in test [6]. The TGI in test [7] is 3.23 µM; in test [8], over 100 µM; in [9], 30 µM; in test [10], 3.41 µM; in test [11] it was 25.4 µM; in test [12], 5.08 µM. Moreover, the TGI in [13] is 4.72 µM; in test [14], 59.6 µM; in test [15], 2.75 µM; in test [16] it was 12.1 µM; in test [17] it was 4.68 µM; in test [18], 15.2 µM. Further, the TGI in test [19] was 11.6 µM; in test [20], 26.7 µM.

Turning to `C=CCN1C[C@H](C)N([C@@H](c2ccc(C(=O)N3CCCCC3)cc2)c2cccc(OC)c2)C[C@H]1C`, the TGI in test [1] is 40.7 µM; in test [2], 99.5 µM; in test [3], over 100 µM; in [4] it was 64.8 µM; in test [5] it was 60.8 µM; in test [6] it was over 100 µM. Besides, the TGI was 35.4 µM in [7]; over 100 µM in test [8]; over 100 µM in test [9]; over 100 µM in test [10]; over 100 µM in test [11]; over 100 µM in test [12]. Moreover, the TGI was over 100 µM in test [13]; over 100 µM in [14]; over 100 µM in test [15]; 30.6 µM in [16]; over 100 µM in test [17]; over 100 µM in test [18]. In addition, the TGI in test [19] is over 100 µM; in test [20], 72.2 µM.

Regarding `CCOC(=O)C1(N)CCc2[nH][nH]c(=O)c2C1` (stereo not given), the TGI in test [1], in test [2], in [3], in [4], in [5] and in [6] was over 100 µM each time. The TGI in test [7], in test [8], in [9], in [10], in test [11] and in test [12] was over 100 µM in each case. Further, the TGI in test [13], in test [14], in test [15], in test [16], in test [17] and in [18] was over 100 µM in each case. Also, the TGI in test [19] and in [20] was over 100 µM throughout.

Regarding `COC(=O)C1=C(OC(=O)/C(=C/c2ccccc2)c2ccc(Cl)cc2)C(C(=O)OC)[C@@]2(O)[C@@H](C(=O)OC)[C@H](C)C[C@@H]1[C@@H]2C(=O)OC` (stereo not given in full), the TGI in test [1], in test [2], in test [3], in test [4], in test [5] and in test [6] was over 100 µM each time. The TGI in [7], in [8], in [9], in test [10], in test [11] and in [12] was over 100 µM throughout. Besides, the TGI in [13], in test [14], in test [15], in test [16], in test [17] and in test [18] was over 100 µM in each case. The TGI in test [19] and in test [20] was over 100 µM in each case.

With `Cc1ccc([N+](=O)[O-])cc1S(=O)(=O)Nc1ccc(C2=NOC(c3cccs3)C2)cc1` (stereo not given), the TGI is over 100 µM in [1]; 21.9 µM in [2]; 70.4 µM in test [3]; 17.8 µM in [4]; 43.6 µM in [5]; 32.3 µM in [6]. For the same compound, the TGI is 11.5 µM in test [7]; 52.2 µM in [8]; 29.1 µM in test [9]; 23.4 µM in test [10]; 30 µM in test [11]; 22.3 µM in [12]. The TGI in test [13] was 28.5 µM; in [14], 67.2 µM; in [15], 23.6 µM; in [16], over 100 µM; in test [17], 28.1 µM; in test [18] it was 50.3 µM. The values for the TGI in test [19] and in test [20] were 21.9 µM and over 100 µM, respectively.

Turning to `Clc1ccc(C(Cc2cccc(Cl)c2)c2c(Cl)nc(N3CCNCC3)nc2Cl)cc1` (stereo not given), the TGI in [1] worked out at 26.4 µM; in [2] it was 28.4 µM; in [3] it was 24.4 µM; in test [4], 36.7 µM; in test [5], 26.5 µM; in test [6], 31.3 µM. Also, the TGI in test [7] is 17.5 µM; in test [8], 27.1 µM; in test [9] it was 28.9 µM; in test [10] it was 24.6 µM; in [11], over 100 µM; in test [12], 24.6 µM. Further, the TGI in test [13] stood at 26.4 µM; in [14], 29.5 µM; in test [15], 25.5 µM; in test [16], 11.9 µM; in test [17], 25.9 µM; in test [18], 30.4 µM. For the same compound, the TGI was 25.8 µM in test [19] and 30.6 µM in test [20].

For `O=C(O)c1cc2c(cc1CC(Cc1ccc3c(c1)CCCC3)C(=O)O)CCCC2` (stereo not given), the TGI in test [1] is over 100 µM; in test [2], over 100 µM; in test [3], over 100 µM; in test [4], over 100 µM; in test [5], over 100 µM; in test [6], 0.758 µM. Besides, the TGI in [7], in test [8], in test [9], in [10], in [11] and in [12] was over 100 µM each time. Besides, the TGI in [13], in test [14], in test [15], in test [16], in test [17] and in test [18] was over 100 µM throughout. The TGI in [19] and in [20] was over 100 µM each time.

Source of the values: PubChem BioAssay (NCI).
